Data published in PMC10691883, “Efficient One-Pot Synthesis of Novel Caffeic Acid Derivatives as Potential Antimalarials” (Journal of Parasitology Research, 2023).
Like-named read-outs stand apart in the source and are kept apart here.

Key:
[1] = system: P. falciparum W2 (CQ-resistant) strain; assay: P. falciparum drug susceptibility assay (pLDH), CQ-resistant strain W2; type: cell-based; conditions: for IC50: Plasmodium falciparum, read-out: P. falciparum IC50 W2; for SIW2: IC50(NHDF)/IC50(W2)
Protocol: (§1) P. falciparum cultures were prepared and maintained according to the method of Trager and Jensen, with slight modifications. […] Serial dilutions of the compounds were prepared in 96-well flat-bottomed microplates. […] Parasite growth was determined spectrophotometrically (OD650) by measuring the activity of parasite lactate dehydrogenase (pLDH), according to a modified version of the method of Makler and Hinrichs, in control and compound-treated cultures.

[2] = system: P. falciparum D10 (CQ-sensitive) strain; assay: P. falciparum drug susceptibility assay (pLDH), CQ-sensitive strain D10; type: cell-based; conditions: for IC50: Plasmodium falciparum; for SID10: IC50(NHDF)/IC50(D10)
Protocol: as §1

[3] = system: NHDF cells (normal human dermal fibroblasts); conditions: read-out: Cytotoxicity IC50, MTT; cited from earlier work
[4] = MTT cytotoxicity assay on NHDF cells; type: cell-based; conditions: human, NHDF cells (normal human dermal fibroblasts)
Protocol: NHDF cells were grown in alpha-MEM medium supplemented likewise with 10% FBS, L-glutamine, and antibiotic-antimycotic. Cultures were maintained at 37°C, in a humidified Innova CO-180 incubator (New Brunswick Scientific, Edison, NJ, USA) in an atmosphere containing 5% CO2. The cytotoxic effects of CA derivatives were evaluated as described in literature using the standard MTT assay. Briefly, NHDF cells were seeded in a 96-well plate at a density of 5 × 10^3 cells per well in an alpha-MEM medium. Cells were grown overnight and subsequently exposed to the different concentrations of tested compounds dissolved in DMSO. An equivalent volume of DMSO was used as a negative control. After 72 h of incubation, media containing the test compounds were removed, the cells were washed with sterile PBS, and 50 μL of MTT solution (0.5 mg/mL stock solution was 10 times diluted in the appropriate culture medium) was added to each well for 3 h at 37°C. Subsequently, the MTT solution was removed, the formazan crystals were solubilized in DMSO, and absorbance was recorded using an Asys UVM 340 multiwell plate reader (Cambridge, UK) at 560 nm with a reference wavelength of 670 nm. The % of cell viability was calculated using the following formula: Cell viability (%) = (AT/AC) × 100, where AT is the absorbance of the treatment well (treated cells) and AC is the absorbance of the control well (not treated cells). GraphPad Prism software for Windows (GraphPad Software, La Jolla, CA, USA) was used to calculate IC50 values.

[5] = Hemolytic activity against human erythrocytes; type: cell-based; conditions: freshly isolated human red blood cells (erythrocytes), PBS, 37°C
Protocol: Hemolytic activity was measured as described by Jaromin et al. Compounds 3 and 4, dissolved in DMSO, were added in a volume corresponding to a final concentration of 12.5 μM and then incubated with freshly isolated human red blood cells in PBS buffer at 37°C for 30 min. After centrifugation, the absorbance was determined at 540 nm, to assess the released hemoglobin. In addition, negative (erythrocytes in PBS buffer), positive (erythrocytes in distilled water), and DMSO controls were also performed. The study protocol was approved by the Bioethics Commission at the Lower Silesian Medical Chamber (1/PNHAB/2018).

P. berghei = system: P. berghei; set-up: method as in PMID 30033538; conditions: 100 mg/kg, in vivo; cited from earlier work
[6] = W2 CQ-resistant strain, 72 h, pLDH, mean ± SD
[7] = D10 CQ-sensitive strain, 72 h, pLDH, mean ± SD, read-out: P. falciparum IC50 D10
[8] = strain not given (D10 and/or W2), read-out: P. falciparum IC50

For `O=C(O)/C=C/c1ccc(O)c(O)c1` [CA, (E)-3-(3,4-dihydroxyphenyl)prop-2-enoic acid, reference compound], the IC50 [1, 6] was greater than 278 µM and the IC50 [2, 7] was greater than 278 µM.
In the case of `CCN(CC)CCCC(C)Nc1ccnc2cc(Cl)ccc12` (centres unmarked) [CQ, chloroquine, reference compound], the IC50 [3] is listed as 41 ± 2.29 µM, the SIW2 [1] is listed as 178.04 and the IC50 ([1]; W2, 72 h) is listed as 0.23 ± 0.08 µM. The SID10 [2] was 2047.5 and the IC50 ([2]; D10, 72 h, read-out: P. falciparum IC50 D10) was 0.02 ± 0.01 µM.
With `CC(C)(C)OC(=O)/C=C/c1ccc(O)cc1O` [Compound 1, tert-Butyl (2E)-3-(2,4-Dihydroxyphenyl)-propenoate] the SIW2 [1] was 2.89, the IC50 [1, 6] was 86.4 ± 27.4 µM and the “RI (resistance index)” value ([1]; ratio IC50 W2 / IC50 D10) was 3.02. For the same compound, the SID10 [2] was 8.73, the IC50 [2, 7] was 28.6 ± 1.94 µM and the IC50 at 72 h [4] was 249.8 ± 0.51 µM.
`CCOC(=O)/C=C/c1ccc(O)c(O)c1O` [Compound 2, Ethyl (2E)-3-(2,3,4-Trihydroxyphenyl)-propenoate] showed an SIW2 [1] of 2.98, an IC50 [1, 6] of 38.8 ± 17.8 µM and an SID10 [2] of 2.74. The IC50 [2, 7] was 42.1 ± 9.12 µM, the melting point was 172 to 173 °C and the IC50 at 72 h [4] was 115 ± 1.76 µM.
With `CCOC(=O)/C(C)=C/c1ccc(O)c(O)c1O` [Compound 3, Ethyl (2E)-3-(2,3,4-Trihydroxyphenyl)-2-methylpropenoate] the SIW2 [1] was 7.02, the IC50 [1, 6] was 11.3 ± 4.81 µM and the SID10 [2] was 6.23. For the same compound, the IC50 [2, 7] was 12.7 ± 2.33 µM, the IC50 [2, 8] was 11 to 12.7 µM and the melting point was 140 °C. For the same compound, the IC50 at 72 h [4] was 79.2 ± 6.14 µM and the hemolysis at 30 min, 12.5 µM [5] was 4.13 ± 0.85%.
For `CC(C)(C)OC(=O)/C=C/c1ccc(O)c(O)c1O` [Compound 4, tert-Butyl (2E)-3-(2,3,4-Trihydroxyphenyl)-propenoate], the “fold decrease of IC50 versus compound 1” value ([1]; CQ-resistant strain, 4 compared with 1) was 7.9 times, the SIW2 [1] was 8.24 and the IC50 [1, 6] was 11 ± 4.88 µM. The SID10 [2] was 7.42, the IC50 [2, 7] was 12.2 ± 4.9 µM and the IC50 [2, 8] was 11 to 12.7 µM. The melting point was 175 °C, the IC50 at 72 h [4] was 90.3 ± 10.3 µM and the hemolysis at 30 min, 12.5 µM [5] was 52.9 ± 2.93%.
Compound `CCOC(=O)/C(C)=C/c1ccc(O)c(F)c1` [Compound 5, Ethyl (2E)-3-(3-Fluoro-4-hydroxyphenyl)-2-methylpropenoate] has an IC50 [1, 6] of 131 ± 52.7 µM, an IC50 [2, 7] of 145 ± 53.6 µM and an IC50 [2, 8] of 117 µM.
In the case of `CC(C)(C)OC(=O)/C=C/c1ccc(O)c(F)c1` [Compound 6, tert-Butyl (2E)-3-(3-Fluoro-4-hydroxyphenyl)-propenoate], the SIW2 [1] is reported as 1.95, the IC50 [1, 6] is reported as 117 ± 35.9 µM and the SID10 [2] is reported as 1.77. It also gave an IC50 [2, 7] of 129 ± 59.6 µM, an IC50 [2, 8] of 145 µM and a melting point of 88.3 °C. It also gave an IC50 at 72 h [4] of 229 ± 7.57 µM.
For `CCOC(=O)/C=C/c1ccc(O)c(O)c1` [Ethyl caffeate], the “P. berghei inhibition growth” value (P. berghei) is given as 55%.
